Test results reported in patent publication US9670194B2 (Calitor Sciences, LLC, priority 2013, dated 2017).

Tests used:
[1] = Compound stability in human liver microsomes; type: in vitro ADME; settings: for half-life at 5 μM: human liver microsomes 0.5 mg protein/mL, compound 5 μM, NADPH 1.0 mM, 37° C.; for CLint scaled at 5 μM: human liver microsomes, in vivo CLint extrapolated
[2] = Compound stability in rat liver microsomes; type: in vitro ADME; settings: pH 7.4; for half-life at 5 μM: rat liver microsomes 0.5 mg protein/mL, compound 5 μM, NADPH 1.0 mM, 37° C.; for CLint scaled at 5 μM: rat liver microsomes, in vivo CLint extrapolated
[3] = biological target: PI3K (p120γ) (h) (Homo sapiens (Human), UniProt P48736); assay: PI3K (p120γ) (h) non-radioactive HTRF kinase assay; type: biochemical
Chain of PI3K (p120γ) (h) (P48736 whole entry): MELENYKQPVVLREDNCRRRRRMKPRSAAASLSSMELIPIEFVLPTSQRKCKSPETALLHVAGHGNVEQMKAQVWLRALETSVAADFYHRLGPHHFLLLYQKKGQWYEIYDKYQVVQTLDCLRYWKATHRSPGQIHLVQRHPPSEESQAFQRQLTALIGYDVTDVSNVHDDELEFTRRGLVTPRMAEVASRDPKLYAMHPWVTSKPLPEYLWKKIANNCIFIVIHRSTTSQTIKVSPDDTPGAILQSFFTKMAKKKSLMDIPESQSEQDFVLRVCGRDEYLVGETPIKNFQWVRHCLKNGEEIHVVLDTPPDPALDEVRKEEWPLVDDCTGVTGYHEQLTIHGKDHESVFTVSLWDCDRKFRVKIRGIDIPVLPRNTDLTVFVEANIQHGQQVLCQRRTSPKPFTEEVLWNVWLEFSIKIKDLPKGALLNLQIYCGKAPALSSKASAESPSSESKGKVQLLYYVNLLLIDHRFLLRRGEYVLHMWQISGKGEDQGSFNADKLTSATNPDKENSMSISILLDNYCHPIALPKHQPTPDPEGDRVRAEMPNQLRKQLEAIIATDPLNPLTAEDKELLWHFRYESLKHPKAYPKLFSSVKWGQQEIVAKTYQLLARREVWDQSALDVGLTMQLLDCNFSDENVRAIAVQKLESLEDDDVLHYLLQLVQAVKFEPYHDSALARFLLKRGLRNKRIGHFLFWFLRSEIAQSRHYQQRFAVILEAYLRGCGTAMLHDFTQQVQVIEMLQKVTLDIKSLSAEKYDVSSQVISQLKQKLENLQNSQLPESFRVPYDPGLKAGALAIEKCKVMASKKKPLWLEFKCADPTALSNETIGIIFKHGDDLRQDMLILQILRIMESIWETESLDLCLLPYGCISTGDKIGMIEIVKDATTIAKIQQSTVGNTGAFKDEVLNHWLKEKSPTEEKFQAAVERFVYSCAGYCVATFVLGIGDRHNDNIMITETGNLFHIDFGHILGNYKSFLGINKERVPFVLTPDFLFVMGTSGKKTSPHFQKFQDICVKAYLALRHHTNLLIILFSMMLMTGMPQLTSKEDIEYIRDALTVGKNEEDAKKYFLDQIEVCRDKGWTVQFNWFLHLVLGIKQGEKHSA

[4] = biological target: PI3K (p110δ/p85α) (h) (Homo sapiens (Human), UniProt O00329); assay: PI3K (p110δ/p85α) (h) non-radioactive HTRF kinase assay; type: biochemical
Chain of PI3K (p110δ/p85α) (h) (O00329 whole entry): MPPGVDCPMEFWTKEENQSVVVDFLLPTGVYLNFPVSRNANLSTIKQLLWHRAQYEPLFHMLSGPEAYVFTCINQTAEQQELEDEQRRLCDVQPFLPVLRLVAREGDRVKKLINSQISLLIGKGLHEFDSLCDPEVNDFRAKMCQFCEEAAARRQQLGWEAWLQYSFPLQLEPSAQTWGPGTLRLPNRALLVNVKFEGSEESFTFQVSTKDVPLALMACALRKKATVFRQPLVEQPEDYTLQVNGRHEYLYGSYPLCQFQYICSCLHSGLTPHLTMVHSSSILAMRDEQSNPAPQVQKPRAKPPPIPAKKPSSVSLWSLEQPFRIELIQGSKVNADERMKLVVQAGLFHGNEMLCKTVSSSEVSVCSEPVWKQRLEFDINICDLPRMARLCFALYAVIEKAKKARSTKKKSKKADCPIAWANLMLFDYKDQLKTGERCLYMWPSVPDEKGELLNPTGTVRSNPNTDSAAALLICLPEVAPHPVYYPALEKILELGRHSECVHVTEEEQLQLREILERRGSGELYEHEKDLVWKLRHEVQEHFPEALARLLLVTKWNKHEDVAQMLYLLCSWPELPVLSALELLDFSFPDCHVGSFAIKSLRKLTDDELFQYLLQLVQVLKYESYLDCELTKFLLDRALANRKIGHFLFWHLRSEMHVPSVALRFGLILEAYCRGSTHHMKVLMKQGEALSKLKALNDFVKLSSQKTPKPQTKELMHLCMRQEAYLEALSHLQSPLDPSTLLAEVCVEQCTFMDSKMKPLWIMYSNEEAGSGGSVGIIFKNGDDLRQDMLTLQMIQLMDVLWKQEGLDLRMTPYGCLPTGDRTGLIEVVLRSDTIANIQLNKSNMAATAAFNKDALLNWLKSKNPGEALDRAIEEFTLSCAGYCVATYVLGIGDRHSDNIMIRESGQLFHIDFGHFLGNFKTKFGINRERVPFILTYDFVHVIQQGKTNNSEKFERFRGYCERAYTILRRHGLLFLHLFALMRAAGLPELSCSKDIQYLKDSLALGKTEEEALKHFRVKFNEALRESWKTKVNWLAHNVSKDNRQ
Chain of PI3K (p110δ/p85α) (h) (P27986 whole entry partner): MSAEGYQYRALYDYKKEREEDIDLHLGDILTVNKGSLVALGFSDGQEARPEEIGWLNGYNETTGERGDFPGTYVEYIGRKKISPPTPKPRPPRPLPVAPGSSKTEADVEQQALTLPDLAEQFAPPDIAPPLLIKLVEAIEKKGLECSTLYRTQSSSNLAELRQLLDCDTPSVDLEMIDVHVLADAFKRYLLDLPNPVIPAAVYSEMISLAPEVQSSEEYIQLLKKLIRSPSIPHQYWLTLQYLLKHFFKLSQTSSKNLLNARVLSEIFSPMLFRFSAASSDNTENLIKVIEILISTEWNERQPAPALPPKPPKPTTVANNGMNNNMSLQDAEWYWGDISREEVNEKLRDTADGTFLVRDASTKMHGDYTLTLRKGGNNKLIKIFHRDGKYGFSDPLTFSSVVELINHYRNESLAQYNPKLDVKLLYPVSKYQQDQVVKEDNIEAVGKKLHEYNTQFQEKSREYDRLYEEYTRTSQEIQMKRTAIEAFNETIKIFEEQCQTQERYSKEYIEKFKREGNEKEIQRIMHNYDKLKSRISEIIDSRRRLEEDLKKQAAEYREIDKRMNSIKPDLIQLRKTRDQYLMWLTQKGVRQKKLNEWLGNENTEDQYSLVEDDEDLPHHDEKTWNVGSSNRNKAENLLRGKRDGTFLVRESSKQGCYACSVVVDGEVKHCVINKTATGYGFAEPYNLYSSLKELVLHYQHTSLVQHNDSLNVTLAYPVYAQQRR

[5] = Pharmacokinetics after intravenous and oral administration in rats; type: in vivo, rat; settings: for clearance (CL) / AUC(0-t) / half-life / Vd: iv dosing; for bioavailability / AUC(0-t) / half-life / Vd: rat, plasma; for bioavailability: oral dose generally 5 or 10 mg/kg; for Vd: read-out: Vss
[6] = biological target: PI3K (p110β/p85α) (h) (Homo sapiens (Human), UniProt P42338); assay: PI3K (p110β/p85α) (h) non-radioactive HTRF kinase assay; type: biochemical
Chain of PI3K (p110β/p85α) (h) (P42338 whole entry): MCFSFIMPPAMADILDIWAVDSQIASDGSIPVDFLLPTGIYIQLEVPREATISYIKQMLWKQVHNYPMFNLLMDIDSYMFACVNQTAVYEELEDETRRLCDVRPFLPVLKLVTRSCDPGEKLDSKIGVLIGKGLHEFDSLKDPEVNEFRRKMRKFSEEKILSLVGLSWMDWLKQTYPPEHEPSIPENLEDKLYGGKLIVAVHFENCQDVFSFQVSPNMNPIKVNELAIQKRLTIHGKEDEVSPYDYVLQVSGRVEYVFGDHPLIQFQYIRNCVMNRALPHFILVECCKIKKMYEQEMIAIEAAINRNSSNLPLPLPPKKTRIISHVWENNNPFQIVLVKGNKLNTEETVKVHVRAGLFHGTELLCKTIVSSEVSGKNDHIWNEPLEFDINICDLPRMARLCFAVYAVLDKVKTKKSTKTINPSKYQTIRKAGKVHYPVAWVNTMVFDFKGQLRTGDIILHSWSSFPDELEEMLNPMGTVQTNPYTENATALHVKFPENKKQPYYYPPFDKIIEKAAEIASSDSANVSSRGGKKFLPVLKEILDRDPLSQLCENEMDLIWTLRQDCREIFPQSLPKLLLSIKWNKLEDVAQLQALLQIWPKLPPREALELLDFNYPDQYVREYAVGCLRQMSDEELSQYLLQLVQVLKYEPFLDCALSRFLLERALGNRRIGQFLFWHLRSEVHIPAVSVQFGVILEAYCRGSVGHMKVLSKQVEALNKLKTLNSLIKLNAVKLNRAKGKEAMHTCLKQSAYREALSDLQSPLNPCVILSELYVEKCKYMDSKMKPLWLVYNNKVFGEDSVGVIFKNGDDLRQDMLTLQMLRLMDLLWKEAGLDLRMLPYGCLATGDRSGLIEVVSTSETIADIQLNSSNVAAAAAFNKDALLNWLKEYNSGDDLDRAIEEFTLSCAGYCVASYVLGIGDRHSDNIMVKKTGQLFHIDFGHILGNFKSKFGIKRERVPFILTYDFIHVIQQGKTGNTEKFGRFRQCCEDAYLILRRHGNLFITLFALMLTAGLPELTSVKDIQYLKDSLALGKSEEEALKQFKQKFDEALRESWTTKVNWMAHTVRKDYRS
Chain of PI3K (p110β/p85α) (h) (P27986 whole entry partner): as the sequence (P27986 whole entry partner) above

[7] = biological target: PI3K (p110α/p85α) (h) (Homo sapiens (Human), UniProt P42336); assay: PI3K (p110α/p85α) (h) non-radioactive HTRF kinase assay; type: biochemical
Chain of PI3K (p110α/p85α) (h) (P42336 whole entry): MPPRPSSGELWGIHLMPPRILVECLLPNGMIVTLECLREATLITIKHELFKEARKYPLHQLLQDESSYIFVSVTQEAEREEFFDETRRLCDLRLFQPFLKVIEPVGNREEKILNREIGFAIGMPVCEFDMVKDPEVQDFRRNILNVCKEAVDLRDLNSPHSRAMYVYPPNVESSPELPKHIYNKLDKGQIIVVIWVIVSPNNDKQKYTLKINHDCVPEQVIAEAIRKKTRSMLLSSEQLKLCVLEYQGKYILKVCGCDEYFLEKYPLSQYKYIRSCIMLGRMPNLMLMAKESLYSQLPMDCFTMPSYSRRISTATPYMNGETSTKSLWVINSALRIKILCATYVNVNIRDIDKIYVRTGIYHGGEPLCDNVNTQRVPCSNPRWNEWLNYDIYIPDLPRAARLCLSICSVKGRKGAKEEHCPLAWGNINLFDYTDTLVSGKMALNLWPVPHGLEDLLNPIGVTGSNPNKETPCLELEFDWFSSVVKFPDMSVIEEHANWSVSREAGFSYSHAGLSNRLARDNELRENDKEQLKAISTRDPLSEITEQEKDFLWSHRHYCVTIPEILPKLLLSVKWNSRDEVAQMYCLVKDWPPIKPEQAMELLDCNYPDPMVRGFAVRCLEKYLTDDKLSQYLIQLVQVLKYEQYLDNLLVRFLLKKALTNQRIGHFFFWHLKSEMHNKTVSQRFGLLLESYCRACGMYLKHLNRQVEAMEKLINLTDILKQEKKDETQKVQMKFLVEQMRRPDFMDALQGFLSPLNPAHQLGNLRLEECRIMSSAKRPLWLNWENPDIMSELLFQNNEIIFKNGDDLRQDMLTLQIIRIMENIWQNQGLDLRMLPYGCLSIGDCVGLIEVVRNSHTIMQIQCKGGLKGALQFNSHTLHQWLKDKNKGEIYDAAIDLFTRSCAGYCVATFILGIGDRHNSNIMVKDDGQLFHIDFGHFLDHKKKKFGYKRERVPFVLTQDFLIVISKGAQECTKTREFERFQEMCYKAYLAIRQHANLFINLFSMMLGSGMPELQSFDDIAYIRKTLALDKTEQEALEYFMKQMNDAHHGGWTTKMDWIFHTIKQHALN
Chain of PI3K (p110α/p85α) (h) (P27986 whole entry partner): as the sequence (P27986 whole entry partner) above

[8] = Pharmacokinetics after intravenous and oral administration in mice; type: in vivo; settings: Mouse; for CL/F / AUC(0-t) / half-life / Vd: iv dosing, dose 1 mg/kg; for bioavailability / AUC(0-t) / half-life / Vd: plasma; for bioavailability: iv dose 1 mg/kg, oral dose generally 5 or 10 mg/kg; for Vd: read-out: Vss
[9] = Pharmacokinetics after intravenous and oral administration in monkeys; type: in vivo; settings: Monkey; for CL/F / AUC(0-t) / half-life / Vd: iv dosing, dose 1 mg/kg; for bioavailability / AUC(0-t) / half-life / Vd: plasma; for bioavailability: iv dose 1 mg/kg, oral dose generally 10 mg/kg; for Vd: read-out: Vss
[10] = Pharmacokinetics after intravenous and oral administration in dogs; type: in vivo; settings: Dog; for CL/F / AUC(0-t) / half-life / Vd: iv dosing, dose 1 mg/kg; for bioavailability / AUC(0-t) / half-life / Vd: plasma; for bioavailability: iv dose 1 mg/kg, oral dose generally 10 mg/kg; for Vd: read-out: Vss

Structure (SMILES)	half-life at 5 μM [1]	CLint scaled at 5 μM [1]	half-life at 5 μM [2]	CLint scaled at 5 μM [2]	IC50 [3]	IC50 [4]	IC50 [6]	clearance (CL) ([5]; dose 1 mg/kg)	bioavailability ([5]; iv dose 1 mg/kg)	AUC(0-t) ([5]; dose 1 mg/kg)	half-life ([5]; dose 1 mg/kg)	Vd ([5]; dose 1 mg/kg)	IC50 [7]	further results
CC[C@H](Nc1ncnc(N)c1-c1nnc(C)o1)c1nc2cccc(Cl)c2c(=O)n1C1CC1 [Ex. 2, (S)-2-(1-((6-amino-5-(5-methyl-1,3,4-oxadiazol-2-yl)pyrimidin-4-yl)amino)-propyl)-5-chloro-3-cyclopropylquinazolin-4(3H)-one]	32.1 min	54.1 mL/min/kg	31.4 min	79.1 mL/min/kg	1.93 µM	0.033 µM	0.168 µM	41.2 mL/min/kg	63.9%	405 ng·h/mL	75.6 min	3.93 L/kg	> 3 µM	–
CC[C@H](Nc1ncnc(N)c1-c1ncnn1C)c1nc2cccc(Cl)c2c(=O)n1-c1ccccc1 [Ex. 10, 2-((1S)-1-((6-amino-5-(1-methyl-1H-1,2,4-triazol-5-yl)pyrimidin-4-yl)amino)propyl)-5-chloro-3-phenylquinazolin-4(3H)-one]	92 min	18.9 mL/min/kg	70.1 min	35.4 mL/min/kg	–	2.51 µM	> 3 µM	–	–	–	–	–	–	clearance (CL) ([5]; dose 0.5 mg/kg): 3.5 mL/min/kg; bioavailability ([5]; iv dose 0.5 mg/kg): 40.2%; AUC(0-t) ([5]; dose 0.5 mg/kg): 2420 ng·h/mL; half-life ([5]; dose 0.5 mg/kg): 72 min; Vd ([5]; dose 0.5 mg/kg): 0.3 L/kg
CC[C@H](Nc1ncnc(N)c1-c1ccccn1)c1nc2cccc(Cl)c2c(=O)n1C1CC1 [Ex. 11, (S)-2-(1-((6-amino-5-(pyridin-2-yl)pyrimidin-4-yl)amino)propyl)-5-chloro-3-cyclopropylquinazolin-4(3H)-one]	78.2 min	22.2 mL/min/kg	62.2 min	39.9 mL/min/kg	–	1.47 µM	> 3 µM	–	–	–	–	–	–	clearance (CL) ([5]; dose 0.5 mg/kg): 4.83 mL/min/kg; bioavailability ([5]; iv dose 0.5 mg/kg): 38.5%; AUC(0-t) ([5]; dose 0.5 mg/kg): 1690 ng·h/mL; half-life ([5]; dose 0.5 mg/kg): 157 min; Vd ([5]; dose 0.5 mg/kg): 0.59 L/kg
CC[C@H](Nc1ncnc(N)c1-c1nnc(C)o1)c1nc2cccc(Cl)c2c(=O)n1-c1cccc(F)c1 [Ex. 34, (S)-2-(1-((6-amino-5-(5-methyl-1,3,4-oxadiazol-2-yl)pyrimidin-4-yl)amino)-propyl)-5-chloro-3-(3-fluorophenyl)quinazolin-4(3H)-one]	29.8 min	58.3 mL/min/kg	8.94 min	278 mL/min/kg	> 3 µM	0.012 µM	1.36 µM	–	–	–	–	–	> 3 µM	–
Cc1noc(-c2c(N)ncnc2N[C@@H](C)c2nc3cccc(Cl)c3c(=O)n2C2CC2)n1 [Ex. 41, (S)-2-(1-((6-amino-5-(3-methyl-1,2,4-oxadiazol-5-yl)pyrimidin-4-yl)amino)-ethyl)-5-chloro-3-cyclopropylquinazolin-4(3H)-one]	41 min	42.4 mL/min/kg	22.4 min	111 mL/min/kg	0.261 µM	0.005 µM	0.035 µM	84.3 mL/min/kg	46.5%	200 ng·h/mL	65.4 min	6.68 L/kg	1.2 µM	–
Cc1noc(-c2c(N)ncnc2N[C@@H](C)c2nc3cccc(F)c3c(=O)n2-c2ccccc2)n1 [Ex. 63, (S)-2-(1-((6-amino-5-(3-methyl-1,2,4-oxadiazol-5-yl)pyrimidin-4-yl)amino)ethyl)-5-fluoro-3-phenylquinazolin-4(3H)-one]	47.9 min	36.3 mL/min/kg	17.9 min	139 mL/min/kg	0.269 µM	0.018 µM	1.32 µM	–	–	–	–	–	> 3 µM	–
Cc1nnc(-c2c(N)ncnc2N[C@@H](C)c2nc3cccc(Cl)c3c(=O)n2-c2ccccc2)o1 [Ex. 64, (S)-2-(1-((6-amino-5-(5-methyl-1,3,4-oxadiazol-2-yl)pyrimidin-4-yl)amino)ethyl)-5-chloro-3-phenylquinazolin-4(3H)-one]	55.8 min	31.1 mL/min/kg	49.6 min	50.1 mL/min/kg	0.112 µM	0.008 µM	0.674 µM	28.3 mL/min/kg	111%	596 ng·h/mL	46.6 min	1.69 L/kg	> 3 µM	CL/F [8]: 18.8 mL/min/kg; bioavailability [8]: 78.7%; AUC(0-t) [8]: 883 ng·h/mL; half-life [8]: 33.6 min; Vd [8]: 0.41 L/kg; CL/F [9]: 7.17 mL/min/kg; bioavailability [9]: 134%; AUC(0-t) [9]: 2340 ng·h/mL; half-life [9]: 209 min; Vd [9]: 1.4 L/kg; CL/F [10]: 1.83 mL/min/kg; bioavailability [10]: 76.3%; AUC(0-t) [10]: 10000 ng·h/mL; half-life [10]: 218 min; Vd [10]: 0.48 L/kg

More lines, in order of falling IC50 [4], values ahead:

half-life at 5 μM [1]	CLint scaled at 5 μM [1]	half-life at 5 μM [2]	CLint scaled at 5 μM [2]	IC50 [3]	IC50 [4]	IC50 [6]	clearance (CL) ([5]; dose 1 mg/kg)	bioavailability ([5]; iv dose 1 mg/kg)	AUC(0-t) ([5]; dose 1 mg/kg)	half-life ([5]; dose 1 mg/kg)	Vd ([5]; dose 1 mg/kg)	IC50 [7]	Structure (SMILES)	further results
69.3 min	25.1 mL/min/kg	15.6 min	159 mL/min/kg	0.893 µM	0.011 µM	0.502 µM	51.8 mL/min/kg	75.5%	323 ng·h/mL	57 min	4.09 L/kg	2.75 µM	CC[C@H](Nc1ncnc(N)c1-c1nc(C)no1)c1nc2cccc(F)c2c(=O)n1-c1ccccc1 [Ex. 39, (S)-2-(1-((6-amino-5-(3-methyl-1,2,4-oxadiazol-5-yl)pyrimidin-4-yl)amino)-propyl)-5-fluoro-3-phenylquinazolin-4(3H)-one]	–
45.5 min	38.2 mL/min/kg	81.1 min	30.6 mL/min/kg	0.258 µM	0.008 µM	0.113 µM	21.5 mL/min/kg	76.1%	726 ng·h/mL	359 min	10.7 L/kg	1.48 µM	CC[C@H](Nc1ncnc(N)c1-c1nc(C)no1)c1nc2cccc(Cl)c2c(=O)n1C1CC1 [Ex. 4, (S)-2-(1-((6-amino-5-(3-methyl-1,2,4-oxadiazol-5-yl)pyrimidin-4-yl)amino)-propyl)-5-chloro-3-cyclopropylquinazolin-4(3H)-one]	CL/F [8]: 255 mL/min/kg; bioavailability [8]: 11%; AUC(0-t) [8]: 651 ng·h/mL; half-life [8]: 88.8 min; Vd [8]: 3.8 L/kg; CL/F [9]: 11.6 mL/min/kg; bioavailability [9]: 55.4%; AUC(0-t) [9]: 1520 ng·h/mL; half-life [9]: 185 min; Vd [9]: 1.92 L/kg; CL/F [10]: 9.67 mL/min/kg; bioavailability [10]: 34.1%; AUC(0-t) [10]: 1580 ng·h/mL; half-life [10]: 684 min; Vd [10]: 6.01 L/kg
53.5 min	32.5 mL/min/kg	17.5 min	142 mL/min/kg	0.384 µM	0.003 µM	–	–	–	–	–	–	–	CC[C@H](Nc1ncnc(N)c1-c1nnc(C)o1)c1nc2cccc(Cl)c2c(=O)n1-c1ccccc1 [Ex. 1, (S)-2-(1-((6-amino-5-(5-methyl-1,3,4-oxadiazol-2-yl)pyrimidin-4-yl)amino)-propyl)-5-chloro-3-phenylquinazolin-4(3H)-one]	clearance (CL) ([5]; dose 0.5 mg/kg): 47.3 mL/min/kg; bioavailability ([5]; iv dose 0.5 mg/kg): 32.3%; AUC(0-t) ([5]; dose 0.5 mg/kg): 355 ng·h/mL; half-life ([5]; dose 0.5 mg/kg): 46.8 min; Vd ([5]; dose 0.5 mg/kg): 3.68 L/kg
36.7 min	47.4 mL/min/kg	31 min	80.2 mL/min/kg	0.066 µM	0.002 µM	0.142 µM	70.8 mL/min/kg	64.5%	237 ng·h/mL	71.4 min	6.23 L/kg	0.442 µM	CC[C@H](Nc1ncnc(N)c1-c1nc(C)no1)c1nc2cccc(Cl)c2c(=O)n1-c1ccccc1 [Ex. 3, (S)-2-(1-((6-amino-5-(3-methyl-1,2,4-oxadiazol-5-yl)pyrimidin-4-yl)amino)-propyl)5-chloro-3-phenylquinazolin-4(3H)-one]	–
